Laboratory results: ChEMBL document CHEMBL3232742, “Design, synthesis and evaluation of a cellular stable and detectable biotinylated fumagillin probe and investigation of cell permeability of fumagillin and its analogs to endothelial and cancer cells” (Eur J Med Chem, 2013)
The source made the active and inactive calls. The rule behind the calls is not given here.

What was measured:
[1] = tested on: HUVEC; assay: Antiproliferative against HUVEC cells assessed as cell viability after 96 hrs by MTT assay; type: functional, cell-based; conditions: Homo sapiens
[2] = Antiproliferative against human Bel7402 cells assessed as cell viability up to 1000 nM after 96 hrs by MTT assay; type: functional, Bel-7402
[3] = tested on: MCF7; assay: Antiproliferative against human MCF7 cells assessed as cell viability up to 1000 nM after 96 hrs by MTT assay; type: functional
[4] = tested on: A549; assay: Antiproliferative against human A549 cells assessed as cell viability up to 1000 nM after 96 hrs by MTT assay; type: functional
[5] = tested on: HepG2; assay: Antiproliferative against human HepG2 cells assessed as cell viability up to 1000 nM after 96 hrs by MTT assay; type: functional
[6] = biological target: Methionine aminopeptidase 2 (Homo sapiens) (UniProt P50579); assay: Binding affinity to MetAP2 in compound pre-treated HUVEC at 0.1 uM after 48 hrs by Western blotting analysis
Chain of Methionine aminopeptidase 2 (Homo sapiens) (P50579 2-478 limits assumed): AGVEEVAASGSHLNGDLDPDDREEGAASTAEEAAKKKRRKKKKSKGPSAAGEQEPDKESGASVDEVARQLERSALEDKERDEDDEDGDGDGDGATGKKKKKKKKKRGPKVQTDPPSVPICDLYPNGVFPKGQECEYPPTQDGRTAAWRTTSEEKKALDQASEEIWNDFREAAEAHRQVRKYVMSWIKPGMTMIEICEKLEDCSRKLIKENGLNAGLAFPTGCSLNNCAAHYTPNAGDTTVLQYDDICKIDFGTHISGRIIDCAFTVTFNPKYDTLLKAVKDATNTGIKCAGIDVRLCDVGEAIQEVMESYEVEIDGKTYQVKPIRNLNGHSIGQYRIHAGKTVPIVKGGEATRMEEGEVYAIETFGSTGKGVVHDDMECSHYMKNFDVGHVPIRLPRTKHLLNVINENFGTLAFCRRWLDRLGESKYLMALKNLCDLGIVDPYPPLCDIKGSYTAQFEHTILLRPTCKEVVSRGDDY

[7] = biological target: Methionine aminopeptidase 2 (Homo sapiens) (UniProt P50579); assay: Binding affinity to MetAP2 in HUVEC at 0.1 uM by Western blotting analysis
[8] = biological target: Methionine aminopeptidase 2 (Homo sapiens) (UniProt P50579); assay: Binding affinity to MetAP2 in fumagillin-pretreated HUVEC at 0.1 uM by Western blotting analysis
[9] = tested on: HepG2; assay: Stability in human HepG2 assessed as compound bound MetAP2 level at 0.1 uM by Western blotting analysis; type: ADME, cell-based; conditions: hepg2, 0.1 µM
[10] = tested on: HUVEC; assay: Stability in HUVEC assessed as compound bound MetAP2 level at 0.1 uM by Western blotting analysis; type: ADME, cell-based; conditions: human
[11] = tested on: HepG2; assay: Antiproliferative against human HepG2 cells assessed as cell viability after 96 hrs by MTT assay; type: functional, cell-based; conditions: HepG2, 96 h
[12] = Antiproliferative against human Bel7402 cells assessed as cell viability after 96 hrs by MTT assay; type: functional, cell-based; conditions: Bel-7402, 96 h

Compound	IC50 [1]	inhibition (INH) [2]	inhibition (INH) [3]	inhibition (INH) [4]	inhibition (INH) [5]	Activity [6]	Activity [7]	Activity [8]	Stability [9]	Stability [10]	IC50 [11]	IC50 [12]
CO[C@@H]1[C@H](OC(=O)/C=C/C=C/C=C/C=C/C(=O)O)CC[C@]2(CO2)[C@H]1[C@@]1(C)O[C@@H]1CC=C(C)C [FUMAGILLIN]	6.6 nM	<50%	<50%	<50%	<50%							
CO[C@@H]1[C@H](OC(=O)NCCCCCCCCNC(=O)CCCC[C@@H]2SC[C@@H]3NC(=O)N[C@@H]32)CC[C@]2(CO2)[C@H]1[C@@]1(C)O[C@@H]1CC=C(C)C	9.8 nM	<50%	<50%	<50%	<50%	inactive	Active	inactive				
CO[C@@H]1[C@H](OC(=O)NCCNC(=O)OCCOCCOCCOCCOCCOCCOC(=O)NCCCC[C@@H]2SC[C@@H]3NC(=O)N[C@@H]32)CC[C@]2(CO2)[C@H]1[C@@]1(C)O[C@@H]1CC=C(C)C	60 nM	<50%	<50%	<50%	<50%				Stable	Stable		
COc1cccc2c1C(=O)c1c(O)c3c(c(O)c1C2=O)C[C@@](O)(C(=O)CO)C[C@@H]3O[C@H]1C[C@H](N)[C@H](O)[C@H](C)O1 [DOXORUBICIN]											20.2 nM	578 nM
